For data set [1], the system named is A375 melanoma cells. The experiment in a line: Antiproliferation assay in A375 cell line by CellTiter Glo. The following applies: Homo sapiens, A-375, 72 hours or 144 hours. It is filed as cell-based. On the procedure:
(§1) In vitro anti-proliferation study of test compounds in A375 cell line by CellTiter Glo. The cells were routinely maintained as a monolayer culture in corresponding culture medium, at 37° C. with 5% CO2 in air.
(§2) Exponential growth cells were harvested by trypsin-EDTA digestion. Cell pellet was re-suspended in fresh culture medium, and the concentration adjusted as needed (the cell density per well was listed in following form). The cell viability was over 98% by Trypan blue staining. Cells were incoluated into 96 wells plates according to the plate map (90 μL/well). Plates were incubated at 37° C. and 5% CO2 overnight. The next day, the 10×compound containing medium was prepared according to the plate map. 10 μL of 10×compound containing medium was transferred into each well of the assay plates (the final DMSO concentration was 0.5%). The medium was gently mixed and incubated at 37° C. and 5% CO2 for another 72 hours or 144 hours.
(§3) Reagent was prepared according to the manufacture's instruction. 50 μL CellTiter-Glo Reagent were added in each well. Contents were mixed for 2 minutes on an orbital shaker to induce cell lysis. The plate was incubated at room temperature for 10 minutes to stabilize luminescent signal. 100 μL of reaction contents were transferred of each well from the clear plates into white walled/white opaque 96-well plates. Luminescence was recorded on Envision.
(§4) Using the luminescence measurements [time zero (T0), control growth (C), and test growth in the presence of drug at the six concentration levels (Ti)], the percentage growth was calculated at each of the drug concentrations levels.
(§5) Percentage growth inhibition (GI) was calculated as: GI (%)=[(Ti−T0)/(C-T0)]×100 for concentrations for which Ti>=T0, and GI (%)=[(Ti−T0)/T0]×100 for concentrations for which Ti<T0. Data were analyzed using the XLFit (Excel) tool, fitting to a 4-parameter equation to generate concentration response curves. Concentration of compound that inhibits 50% of control cell growth (GI50) was back-interpolated when y=50% of net growth of DMSO treated control wells using nonlinear regression with the equation: f(x) 205 [fit=(A+((B−A)/(1+((C/x)^D))))], where A is the minimum response (Ymin), B is the maximum response (Ymax), C is the inflection point of the curve (Re GI50) and D is the Hill coefficient. Growth inhibition of 50% (GI50) was calculated at the 50% Growth inhibition on the curve. Index values were the sum of Inhibition rate (IR) at each tested compound concentration.
(In ATP-based viability assays light output follows the ATP content of the culture.)

Data set [2] concerns HT-29 colon cancer cells. The experiment in a line: Antiproliferation assay in HT-29 cells (CellTiter Glo). The class given is cell-based. The settings on record: Homo sapiens, 72 hours or 144 hours. On the procedure:
[The source words this procedure for another cell line and reports this cell line under the same test.] as §1, §2, §3, §4, §5

In data set [3] the test system is P-glycoprotein (MDR1). Nature of the data set: MDCK-MDR1 permeability assay. The following applies: dog; for efflux ratio at 120 min: MDCK-MDR1, Papp(B−A)/Papp(A−B); for Papp A→B at 120 min: MDCK-MDR1, apical to basolateral; for Papp A→B at 120 min / Papp B→A at 120 min: 1-30 μM; for Papp B→A at 120 min: MDCK-MDR1, basolateral to apical. The class given is in vitro ADME, canine. On the procedure:
MDCK-MDR1 cells originated from transfection of Madin Darby canine kidney (MDCK) cells with the MDR1 gene, the gene encoding for the efflux protein, P-glycoprotein. This cell line is ideal for identifying substrates of P-gp, with or without an inhibitor. The cells were seeded on a Multiscreen™ plate to form a confluent monolayer over 4 days prior to the experiment. On day 4, the test compound (1-30 μM concentration) was added to the apical side of the membrane and the transport of the compound across the monolayer was monitored over a 120 minutes time period. To study drug efflux, it was also necessary to investigate transport of the compound from the basolateral compartment to the apical compartment and calculate an efflux ratio.
(§6) The permeability coefficient (Papp) was calculated from the following equation: […]
where dQ/dt is the rate of permeation of the drug across the cells, C0 is the donor compartment concentration at time zero and A is the area of the cell monolayer.
An efflux ratio was calculated from the mean apical to basolateral (A−B) Papp data and basolateral to apical (B−A) Papp data.
Efflux Ratio=Papp(B−A)/Papp(A−B)

The nature of data set [4]: Caco-2 permeability assay. The following applies: human; for efflux ratio at 120 min: Caco-2; for Papp A→B at 120 min: Caco-2, apical to basolateral; for Papp A→B at 120 min / Papp B→A at 120 min: 1-30 uM; for Papp B→A at 120 min: Caco-2, basolateral to apical. It is filed as in vitro ADME. The protocol:
Caco-2 cells are widely used as an in vitro assay to measure the permeability of a drug compound. The Caco-2 cell line is derived from a human colorectal carcinoma, and when cultured, the cells spontaneously differentiate into monolayers of polarized enterocytes. Caco-2 cells express P-glycoprotein and breast cancer resistance protein, two of the most relevant cell membrane active transporters that affect drug compound's permeability into cells and blood brain barrier.
The cells were seeded on Millipore Millicell plates and formed a confluent monolayer over 20 days prior to the experiment. On day 20, the test compound (1-30 uM concentration) was added to the apical side of the membrane and the transport of the compound across the monolayer was monitored over a 120 minutes time period. To study drug efflux, it was also necessary to investigate transport of the compound from the basolateral compartment to the apical compartment.
as §6
where dQ/dt is the rate of permeation of the drug across the cells, C0 is the donor compartment concentration at time zero and A is the area of the cell monolayer. C0 is obtained from analysis of the dosing solution at the start experiment.
A general note: Caco-2 monolayers are a common model of the intestinal barrier.

A short description of data set [5]: Mouse pharmacokinetics study. The class given is in vivo. The settings on record: CD-1 mice; for F / AUC / Cmax / Tmax: PO 25 mg/kg; for Vd / half-life / clearance / AUC / Cmax / Tmax: mouse, plasma; for Vd / half-life / clearance: IV 5 mg/kg; for half-life: 20% Hydroxypropyl-beta-cyclodextrin; for clearance: read-out: Clp. From the text: The pharmacokinetic properties of Compounds 5 and 6 was studied in CD-1 mice via intravenous and oral administration by using a standard protocol. The test articles were formulated in 20% Hydroxypropyl-beta-cyclodextrin, either as a clear solution or fine suspension.

Each structure is given as a SMILES string.

16 compounds from US20240083844A1, “KINASE INHIBITORS AND USES THEREOF” (ABM Therapeutics Corporation, priority 2020, published 2024) can be followed below.

What is called GI50 is the concentration at which growth is held to half of that of the control. On to `O=C(NC1CNC1)c1c(F)cc(F)cc1Nc1ccc(I)cc1F` [Compound 1, N-(azetidin-3-yl)-2,4-difluoro-6-((2-fluoro-4-iodophenyl)amino)benzamide], for which the figures for the GI50 in data set [1] and in data set [2] were 100 to 1000 nM and > 1000 nM, respectively.

Consider `O=C(NC1CCNC1)c1c(F)cc(F)cc1Nc1ccc(I)cc1F` (stereo not shown) [Compound 2, 2,4-difluoro-6-((2-fluoro-4-iodophenyl)amino)-N-(pyrrolidin-3-yl)benzamide], for which the GI50 in data set [1] was > 1000 nM.

As for `CC(=O)N1CC(NC(=O)c2c(F)cncc2Nc2ccc(I)cc2F)C1` [Compound 20, N-(1-acetylazetidin-3-yl)-3-fluoro-5-((2-fluoro-4-iodophenyl)amino)isonicotinamide], the concentration for 50% growth inhibition (GI50) in data set [1] is > 1000 nM.

Turning to `C#Cc1ccc(Nc2cncc(F)c2C(=O)NC2CN(CC)C2)c(F)c1` [Compound 12, N-(1-ethylazetidin-3-yl)-3-((4-ethynyl-2-fluorophenyl)amino)-5-fluoroisonicotinamide], the GI50 in data set [1] and in data set [2] was 100 to 1000 nM each time.

A word on the efflux ratio: it is the permeability from basolateral to apical divided by that in the opposite direction, in the common usage. In general, Papp A→B refers to the apparent permeability from the apical to the basolateral side of a cell layer. High values mean ready permeation, low ones poor permeation. A word on the Papp B→A: it is the apparent permeability from the basolateral to the apical side of a cell layer. By Vd is commonly meant a proportionality between amount in the body and measured concentration, not a real space. A lower Vd goes with confinement near the circulation. As a reminder, the half-life is the time needed for the level to fall by half in the phase considered. High values mean slow decline, low ones rapid decline. In general, AUC refers to the area under the concentration-time curve, a measure of exposure. Higher therefore signals more exposure. A word on the Cmax: it is the highest concentration seen after dosing. By Tmax is commonly meant the time from dosing to the highest level. In the case of `C#Cc1ccc(Nc2cncc(F)c2C(=O)NC2CNC2)c(F)c1` [Compound 11, N-(azetidin-3-yl)-3-((4-ethynyl-2-fluorophenyl)amino)-5-fluoroisonicotinamide], the concentration for 50% growth inhibition (GI50) in data set [1] is < 100 nM. For the same compound, the concentration for 50% growth inhibition (GI50) in data set [2] was < 100 nM. In data set [3], the efflux ratio at 120 min stood at 4.08, the apical-to-basolateral permeability (Papp A→B) at 120 min worked out at 14.6 ×10⁻⁶ cm/s and the Papp B→A at 120 min was determined as 59.5 ×10⁻⁶ cm/s. In addition, in data set [4], the efflux ratio at 120 min was found to be 2.33, the apparent permeability from apical to basolateral (Papp A→B) at 120 min was determined as 8.79 ×10⁻⁶ cm/s and the basolateral-to-apical permeability (Papp B→A) at 120 min was found to be 20.5 ×10⁻⁶ cm/s. Besides, in data set [5], the F stood at 93.1 ± 6.0%, the Vd was 67.7 ± 13.9 L/kg, the half-life is 542 ± 41.4 min and the clearance amounted to 86 ± 12 mL/min/kg. Moreover, in data set [5], the AUC amounted to 4550 ± 301 ng·h/mL, the peak level (Cmax) was 1700 ± 95 ng/mL and the time of peak concentration (Tmax) is 40.2 ± 17.4 min.

Consider `O=C(NC1CCCNC1)c1c(F)cc(F)cc1Nc1ccc(I)cc1F` (stereo not shown) [Compound 3, 2,4-difluoro-6-((2-fluoro-4-iodophenyl)amino)-N-(piperidin-3-yl)benzamide], for which, in data set [1], the GI50 is > 1000 nM.

`O=C(NC1CNC1)c1c(F)cncc1Nc1ccc(I)cc1F` [Compound 5, N-(azetidin-3-yl)-3-fluoro-5-((2-fluoro-4-iodophenyl)amino)isonicotinamide]: the GI50 in data set [1] is < 100 nM. For the same compound, the GI50 in data set [2] was < 100 nM. In data set [3], the efflux ratio at 120 min is 3.42, the Papp A→B at 120 min worked out at 10.5 ×10⁻⁶ cm/s and the basolateral-to-apical permeability (Papp B→A) at 120 min was found to be 36 ×10⁻⁶ cm/s.

As to `O=C(NC1CNC1)c1c(Cl)cncc1Nc1ccc(I)cc1F` [Compound 13, N-(azetidin-3-yl)-3-chloro-5-((2-fluoro-4-iodophenyl)amino)isonicotinamide], the 50% growth inhibitory concentration (GI50) in data set [1] is < 100 nM. For the same compound, in data set [3], the efflux ratio at 120 min came out at 11.8, the apical-to-basolateral permeability (Papp A→B) at 120 min came out at 4.3 ×10⁻⁶ cm/s and the basolateral-to-apical permeability (Papp B→A) at 120 min worked out at 50.8 ×10⁻⁶ cm/s.

Turning to `O=C(O)CCN1CC(NC(=O)c2ccncc2Nc2ccc(I)cc2F)C1` [Compound 18, 3-(3-(3-((2-fluoro-4-iodophenyl)amino)isonicotinamido)azetidin-1-yl)propanoic acid], the GI50 in data set [1] is > 1000 nM.

`O=C(O)CCCN1CC(NC(=O)c2ccncc2Nc2ccc(I)cc2F)C1` [Compound 19, 4-(3-(3-((2-fluoro-4-iodophenyl)amino)isonicotinamido)azetidin-1-yl)butanoic acid] came in with a 50% growth inhibitory concentration (GI50) in data set [1] of 100 to 1000 nM.

For `CCN1CC(NC(=O)c2c(F)cncc2Nc2ccc(I)cc2F)C1` [Compound 6, N-(1-ethylazetidin-3-yl)-3-fluoro-5-((2-fluoro-4-iodophenyl)amino)isonicotinamide], the 50% growth inhibitory concentration (GI50) in data set [1] is < 100 nM. Besides, the GI50 in data set [2] was < 100 nM. In addition, in data set [3], the efflux ratio at 120 min was 0.53, the apparent permeability from apical to basolateral (Papp A→B) at 120 min was 34.1 ×10⁻⁶ cm/s and the Papp B→A at 120 min amounted to 18 ×10⁻⁶ cm/s. Moreover, in data set [4], the efflux ratio at 120 min worked out at 0.47, the Papp A→B at 120 min turned out to be 89.3 ×10⁻⁶ cm/s and the Papp B→A at 120 min is 42.3 ×10⁻⁶ cm/s. Besides, in data set [5], the F amounted to 62.1 ± 11.4%, the Vd came to 4.2 ± 0.33 L/kg, the half-life is 37.5 ± 2.58 min and the clearance was determined as 77.8 ± 8 mL/min/kg. Also, in data set [5], the exposure (AUC) turned out to be 3160 ± 641 ng·h/mL, the peak concentration (Cmax) came out at 1070 ± 328 ng/mL and the Tmax is 30 min.

`O=C(NC1CN(CCF)C1)c1c(F)cncc1Nc1ccc(I)cc1F` [Compound 9, 3-fluoro-5-((2-fluoro-4-iodophenyl)amino)-N-(1-(2-fluoroethyl)azetidin-3-yl)isonicotinamide]: the 50% growth inhibitory concentration (GI50) in data set [2] was < 100 nM.

As for `CN1CC(NC(=O)c2c(F)cncc2Nc2ccc(I)cc2F)C1` [Compound 7, 3-fluoro-5-((2-fluoro-4-iodophenyl)amino)-N-(1-methylazetidin-3-yl)isonicotinamide], the GI50 in data set [1] is < 100 nM. Also, in data set [3], the efflux ratio at 120 min was found to be 0.58, the Papp A→B at 120 min turned out to be 32.5 ×10⁻⁶ cm/s and the apparent permeability from basolateral to apical (Papp B→A) at 120 min stood at 19 ×10⁻⁶ cm/s.

As for `O=C(NC1CNC1)c1ccncc1Nc1ccc(I)cc1F` [Compound 15, N-(azetidin-3-yl)-3-((2-fluoro-4-iodophenyl)amino)isonicotinamide], in data set [2], the GI50 was < 100 nM.

As for `O=C(NC1CNC1)c1c(F)cncc1Nc1ccc(Br)cc1Cl` [Compound 14, N-(azetidin-3-yl)-3-((4-bromo-2-chlorophenyl)amino)-5-fluoroisonicotinamide], the concentration for 50% growth inhibition (GI50) in data set [1] is 100 to 1000 nM; in data set [2], > 1000 nM.

Turning to `O=C(NC1CNC1)c1c(F)c(F)c(F)c(F)c1Nc1ccc(I)cc1F` [Compound 4, N-(azetidin-3-yl)-2,3,4,5-tetrafluoro-6-((2-fluoro-4-iodophenyl)amino)benzamide], the results for the GI50 in data set [1] and in data set [2] were 100 to 1000 nM and > 1000 nM, respectively.
